Reference: publication PMC9848300, “Discovery of novel enasidenib analogues targeting inhibition of mutant isocitrate dehydrogenase 2 as antileukaemic agents” (Journal of Enzyme Inhibition and Medicinal Chemistry, 2023)

How the values were obtained:
UACC-62 = assay: NCI 60 antitumor screening (single dose / five doses); type: cell-based; conditions: Homo sapiens; UACC-62 (melanoma), single dose 10 μM; read-out: Growth inhibition percentage (GI %)
PC-3 = assay: NCI 60 antitumor screening (single dose); type: cell-based; conditions: Homo sapiens; PC-3 (prostate cancer), single dose 10 μM; read-out: Growth inhibition percentage (GI %)
Procedure, shortened: (§1)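 At one concentration (10 μM), compounds are run in triplicate on 60 human cancer lines per the NCI method. Treated-cell growth is recorded as G%. Reported inhibition equals 100 − G%.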

SK-OV-3 = assay: NCI 60 antitumor screening (single dose); type: cell-based; conditions: Homo sapiens; SK-OV-3 (ovarian cancer), single dose 10 μM; read-out: Growth inhibition percentage (GI %)
Procedure, shortened: (§2)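 Percent growth inhibition, calculated as 100 minus percent growth (G%) of treated cells, following a single 10 μM exposure in the NCI 60 human cancer cell screen; triplicate runs.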

NCI-H460 = assay: NCI 60 antitumor screening (single dose); type: cell-based; conditions: Homo sapiens; NCI-H460 (non-small cell lung cancer), single dose 10 μM; read-out: Growth inhibition percentage (GI %)
Procedure, shortened: as §2

HS 578T = assay: NCI 60 antitumor screening (single dose); type: cell-based; conditions: Homo sapiens; HS 578T (breast cancer), single dose 10 μM; read-out: Growth inhibition percentage (GI %)
Procedure, shortened: as §1

UACC-257 = assay: NCI 60 antitumor screening (single dose / five doses); type: cell-based; conditions: Homo sapiens; UACC-257 (melanoma), single dose 10 μM; read-out: Growth inhibition percentage (GI %)
MALME-3M = assay: as above; type: cell-based; conditions: Homo sapiens; MALME-3M (melanoma), single dose 10 μM; read-out: Growth inhibition percentage (GI %)
SW-620 = assay: as above; type: cell-based, human; conditions: Homo sapiens; SW-620 (colon cancer), single dose 10 μM; read-out: Growth inhibition percentage (GI %)
SF-539 = assay: as above; type: cell-based; conditions: Homo sapiens; SF-539 (CNS cancer), single dose 10 μM; read-out: Growth inhibition percentage (GI %)
SNB-75 = assay: as above; type: cell-based; conditions: Homo sapiens; SNB-75 (CNS cancer), single dose 10 μM; read-out: Growth inhibition percentage (GI %)
DU-145 = assay: as above; type: cell-based; conditions: Homo sapiens; DU-145 (prostate cancer), single dose 10 μM; read-out: Growth inhibition percentage (GI %)
HT29 = assay: as above; type: cell-based, human; conditions: Homo sapiens, HT-29; HT29 (colon cancer), single dose 10 μM; read-out: Growth inhibition percentage (GI %)
CCRF-CEM = assay: as above; type: cell-based; conditions: Homo sapiens; CCRF-CEM (leukaemia), single dose 10 μM; read-out: Growth inhibition percentage (GI %)
MDA-MB-435 = assay: as above; type: cell-based; conditions: Homo sapiens; MDA-MB-435 (melanoma), single dose 10 μM; read-out: Growth inhibition percentage (GI %)
IGROV1 = assay: as above; type: cell-based; conditions: Homo sapiens, IGROV-1; IGROV1 (ovarian cancer), single dose 10 μM; read-out: Growth inhibition percentage (GI %)
SK-MEL-28 = assay: as above; type: cell-based; conditions: Homo sapiens; SK-MEL-28 (melanoma), single dose 10 μM; read-out: Growth inhibition percentage (GI %)
NCI/ADR-RES = assay: as above; type: cell-based; conditions: Homo sapiens; NCI/ADR-RES (ovarian cancer), single dose 10 μM; read-out: Growth inhibition percentage (GI %)
ACHN = assay: as above; type: cell-based; conditions: Homo sapiens; ACHN (renal cancer), single dose 10 μM; read-out: Growth inhibition percentage (GI %)
SR = assay: as above; type: cell-based; conditions: Homo sapiens; SR (leukaemia), single dose 10 μM; read-out: Growth inhibition percentage (GI %)
MDA-MB-468 = assay: as above; type: cell-based; conditions: Homo sapiens; MDA-MB-468 (breast cancer), single dose 10 μM; read-out: Growth inhibition percentage (GI %)
A498 = assay: as above; type: cell-based; conditions: Homo sapiens; A498 (renal cancer), single dose 10 μM; read-out: Growth inhibition percentage (GI %)
COLO 205 = assay: as above; type: cell-based; conditions: Homo sapiens; COLO 205 (colon cancer), single dose 10 μM; read-out: Growth inhibition percentage (GI %)
EKVX = assay: as above; type: cell-based; conditions: Homo sapiens; EKVX (non-small cell lung cancer), single dose 10 μM; read-out: Growth inhibition percentage (GI %)
SK-MEL-5 = assay: as above; type: cell-based; conditions: Homo sapiens; SK-MEL-5 (melanoma), single dose 10 μM; read-out: Growth inhibition percentage (GI %)
SN 12C = assay: as above; type: cell-based; conditions: Homo sapiens, SN12C; SN 12C (renal cancer), single dose 10 μM; read-out: Growth inhibition percentage (GI %)
HOP-92 = assay: as above; type: cell-based; conditions: Homo sapiens; HOP-92 (non-small cell lung cancer), single dose 10 μM; read-out: Growth inhibition percentage (GI %)
MDA-MB-231/ATCC = assay: as above; type: cell-based; conditions: Homo sapiens; MDA-MB-231/ATCC (breast cancer), single dose 10 μM; read-out: Growth inhibition percentage (GI %)
RXF 393 = assay: as above; type: cell-based; conditions: Homo sapiens; RXF 393 (renal cancer), single dose 10 μM; read-out: Growth inhibition percentage (GI %)

| SMILES | inhibition at 10 µM (UACC-62) [%] | inhibition at 10 µM (PC-3) [%] | inhibition at 10 µM (SK-OV-3) [%] | inhibition at 10 µM (NCI-H460) [%] | inhibition at 10 µM (HS 578T) [%] | inhibition at 10 µM (UACC-257) [%] | inhibition at 10 µM (MALME-3M) [%] | inhibition at 10 µM (SW-620) [%] | inhibition at 10 µM (SF-539) [%] | inhibition at 10 µM (SNB-75) [%] | inhibition at 10 µM (DU-145) [%] | inhibition at 10 µM (HT29) [%] | inhibition at 10 µM (CCRF-CEM) [%] | inhibition at 10 µM (MDA-MB-435) [%] | inhibition at 10 µM (IGROV1) [%] | inhibition at 10 µM (SK-MEL-28) [%] | inhibition at 10 µM (NCI/ADR-RES) [%] | inhibition at 10 µM (ACHN) [%] | inhibition at 10 µM (SR) [%] | inhibition at 10 µM (MDA-MB-468) [%] | also measured |
| --- | --- | --- | --- | --- | --- | --- | --- | --- | --- | --- | --- | --- | --- | --- | --- | --- | --- | --- | --- | --- | --- |
| O=C1Nc2ccc(Cl)cc2/C1=N\Nc1nc(N/N=C2/C(=O)Nc3ccc(Cl)cc32)nc(N2CCOCC2)n1 [compound 8b, (3E)-5-Chloro-3-[2–(4-{2-[(3E)-5-chloro-2-oxo-2,3-dihydro-1H-indol-3-ylidene]hydrazin-1-yl}6-(morpholin-4-yl)-1,3,5-triazin-2-yl)hydrazin-1-ylidene]-2,3-dihydro-1H-indol-2-one] | 48.4 | 43.9 | 44.5 | 11.8 | 108 | 18 | 43.6 | 25.7 | 84 | 101 | 11.6 | 8.9 | 79.8 | 36.5 | 45 | 45 | 1.85 | 25.5 | 70.8 | 76.4 | inhibition at 10 µM (A498): 78.4%; inhibition at 10 µM (COLO 205): 51.3%; inhibition at 10 µM (EKVX): 14.8%; inhibition at 10 µM (SK-MEL-5): 53.9%; inhibition at 10 µM (SN 12C): 56.1%; inhibition at 10 µM (HOP-92): 74%; inhibition at 10 µM (MDA-MB-231/ATCC): 63.7%; inhibition at 10 µM (RXF 393): 86.3% |
| COC(=O)C(Cc1ccccc1)Nc1nc(NC(Cc2ccccc2)C(=O)OC)nc(N2CCOCC2)n1 (stereo not drawn) [compound 8c, Methyl 2-({4-[(1-methoxy-1-oxo-3-phenylpropan-2-yl)amino]-6-(morpholin-4-yl)-1,3,5-triazin-2-yl}amino)-3-phenylpropanoate] | 9.82 | -2.72 | -2.71 | -6.88 | -1.3 | -3.35 | -4.87 | -11.7 | 1.99 | 9.51 | -11.6 | -0.61 | -4.54 | -4.67 | 1.38 | -8.72 | -10.6 | -8.95 | -0.37 | -7.75 | inhibition at 10 µM (A498): -7.4%; inhibition at 10 µM (COLO 205): -4.56%; inhibition at 10 µM (EKVX): -4.54%; inhibition at 10 µM (SK-MEL-5): 1.32%; inhibition at 10 µM (SN 12C): -3.62%; inhibition at 10 µM (HOP-92): -18.5%; inhibition at 10 µM (MDA-MB-231/ATCC): -2.54%; inhibition at 10 µM (RXF 393): -12.7% |
| O=C(NNc1nc(NNC(=O)c2ccccc2)nc(N2CCOCC2)n1)c1ccccc1 [compound 8d, N'-[4-(morpholin-4-yl)-6-(phenylhydrazido)-1,3,5-triazin-2-yl]benzohydrazide] | 4.98 | -7.68 | -18.5 | -1.86 | -6.14 | 1.13 | -7.11 | -4.44 | 2.56 | 9.11 | -7.98 | -12 | -6.05 | -2.63 | -2.38 | -19.5 | 1.24 | -4.4 | 2.07 | -15.1 | inhibition at 10 µM (A498): -11%; inhibition at 10 µM (COLO 205): -12.9%; inhibition at 10 µM (EKVX): 3.9%; inhibition at 10 µM (SK-MEL-5): 0.18%; inhibition at 10 µM (SN 12C): -6.53%; inhibition at 10 µM (HOP-92): -12.8%; inhibition at 10 µM (MDA-MB-231/ATCC): -3.73%; inhibition at 10 µM (RXF 393): 0.99% |
